# Measured values: US20090298878A1, “OXIME COMPOUNDS AND THE USE THEREOF” (priority 2006, published 2009)
# Biological target: T1, N-type calcium channel (NTCC) (Homo sapiens, UniProt Q00975)
# T1 construct: host or cells: IMR32 cells differentiated with dibutyryl cAMP and bromodeoxyuridine
# Test: FLIPR calcium mobilization assay for N-type calcium channel (differentiated IMR32 cells)
# Type: cell-based
# Conditions: about 1.0 μM or less; calcium mobilization and/or electrophysiological assay
# Procedure: Cell maintenance and differentiation. Unless noted otherwise, cell culture reagents were purchased from Mediatech of Hemdon, Md. IMR32 cells (American Type Culture Collection, ATCC, Manassas, Va.) were routinely cultured in growth medium consisting of minimum essential medium containing 10% fetal bovine serum (FBS, Hyclone, Logan, Utah), 100 U/mL penicillin, 100 μg/mL streptomycin, 2 mM L-glutamine, 1 mM sodium pyruvate, and 1× MEM non-essential amino acids. 80-90% confluent flasks of cells were differentiated using the following differentiation medium: Growth medium plus 1 mM dibutyryl cyclic AMP (Sigma, St. Louis, Mo.), and 2.5 μM bromodeoxyuridine (Sigma). Cells were differentiated for 8 days by replacing differentiation medium every 2-3 days.
# FLIPR Calcium Mobilization Assay for N-type Calcium Channel. One day prior to performing this assay, differentiated IMR32 cells were treated with 1× CellStripper, and seeded on poly-D-lysine-coated 96-well clear-bottom black plates (Becton Dickinson, Franklin Lakes, N.J.) at 200,000 cells/well. On the day of the assay, the cell plates were washed with IMR32 buffer (127 mM NaCl, 1 mM KCl, 2 mM MgCl2, 700 μM NaH2PO4, 5 mM CaCl2, 5 mM NaHCO3, 8 mM HEPES, 10 mM glucose, pH 7.4), then pre-stimulated with KCl and loaded as follows: 0.05 mL of IMR32 buffer, 0.05 mL of each compound tested diluted in IMR32 buffer containing 20 μM nitrendipine (Sigma), and 0.1 mL KCl dissolved in IMR32 buffer, plus Fluo-4 were added (3 μM final concentration, Molecular Probes, Eugene, Oreg.). Final test compound concentrations ranged from about 846 pM to about 17 μM, final nitrendipine concentration was 5 μM, and final KCl concentration was 90 mM. After 1 hour, the cells were washed twice with 0.05 mL of each compound tested in nitrendipine-containing IMR32 buffer (no KCl or Fluo-4), and then replaced with 0.1 mL of each compound tested in nitrendipine-containing IMR32 buffer. Plates were then transferred to a Fluorimetric imaging Plate Reader (FLIPR^96, Molecular Devices, Inc., Sunnyvale, Calif.) for assay. The FLIPR measured basal Fluo-4 fluorescence for 315 seconds (i.e., 5 minutes and 15 seconds), then added 0.1 mL KCl agonist dissolved in IMR32 buffer and measured fluorescence for another 45 seconds. Final test compound concentrations on the cells after FLIPR read ranged from about 846 pM to about 17 μM, final nitrendipine concentration was 5 μM, and final KCl concentration was 90 mM. Data were collected over the entire time course and analyzed using Excel, Graph Pad Prism (version 3.02, Graph Pad, San Diego, Calif.), or an in-house non-linear regression analysis software.
# T1 sequence (Q00975 whole entry): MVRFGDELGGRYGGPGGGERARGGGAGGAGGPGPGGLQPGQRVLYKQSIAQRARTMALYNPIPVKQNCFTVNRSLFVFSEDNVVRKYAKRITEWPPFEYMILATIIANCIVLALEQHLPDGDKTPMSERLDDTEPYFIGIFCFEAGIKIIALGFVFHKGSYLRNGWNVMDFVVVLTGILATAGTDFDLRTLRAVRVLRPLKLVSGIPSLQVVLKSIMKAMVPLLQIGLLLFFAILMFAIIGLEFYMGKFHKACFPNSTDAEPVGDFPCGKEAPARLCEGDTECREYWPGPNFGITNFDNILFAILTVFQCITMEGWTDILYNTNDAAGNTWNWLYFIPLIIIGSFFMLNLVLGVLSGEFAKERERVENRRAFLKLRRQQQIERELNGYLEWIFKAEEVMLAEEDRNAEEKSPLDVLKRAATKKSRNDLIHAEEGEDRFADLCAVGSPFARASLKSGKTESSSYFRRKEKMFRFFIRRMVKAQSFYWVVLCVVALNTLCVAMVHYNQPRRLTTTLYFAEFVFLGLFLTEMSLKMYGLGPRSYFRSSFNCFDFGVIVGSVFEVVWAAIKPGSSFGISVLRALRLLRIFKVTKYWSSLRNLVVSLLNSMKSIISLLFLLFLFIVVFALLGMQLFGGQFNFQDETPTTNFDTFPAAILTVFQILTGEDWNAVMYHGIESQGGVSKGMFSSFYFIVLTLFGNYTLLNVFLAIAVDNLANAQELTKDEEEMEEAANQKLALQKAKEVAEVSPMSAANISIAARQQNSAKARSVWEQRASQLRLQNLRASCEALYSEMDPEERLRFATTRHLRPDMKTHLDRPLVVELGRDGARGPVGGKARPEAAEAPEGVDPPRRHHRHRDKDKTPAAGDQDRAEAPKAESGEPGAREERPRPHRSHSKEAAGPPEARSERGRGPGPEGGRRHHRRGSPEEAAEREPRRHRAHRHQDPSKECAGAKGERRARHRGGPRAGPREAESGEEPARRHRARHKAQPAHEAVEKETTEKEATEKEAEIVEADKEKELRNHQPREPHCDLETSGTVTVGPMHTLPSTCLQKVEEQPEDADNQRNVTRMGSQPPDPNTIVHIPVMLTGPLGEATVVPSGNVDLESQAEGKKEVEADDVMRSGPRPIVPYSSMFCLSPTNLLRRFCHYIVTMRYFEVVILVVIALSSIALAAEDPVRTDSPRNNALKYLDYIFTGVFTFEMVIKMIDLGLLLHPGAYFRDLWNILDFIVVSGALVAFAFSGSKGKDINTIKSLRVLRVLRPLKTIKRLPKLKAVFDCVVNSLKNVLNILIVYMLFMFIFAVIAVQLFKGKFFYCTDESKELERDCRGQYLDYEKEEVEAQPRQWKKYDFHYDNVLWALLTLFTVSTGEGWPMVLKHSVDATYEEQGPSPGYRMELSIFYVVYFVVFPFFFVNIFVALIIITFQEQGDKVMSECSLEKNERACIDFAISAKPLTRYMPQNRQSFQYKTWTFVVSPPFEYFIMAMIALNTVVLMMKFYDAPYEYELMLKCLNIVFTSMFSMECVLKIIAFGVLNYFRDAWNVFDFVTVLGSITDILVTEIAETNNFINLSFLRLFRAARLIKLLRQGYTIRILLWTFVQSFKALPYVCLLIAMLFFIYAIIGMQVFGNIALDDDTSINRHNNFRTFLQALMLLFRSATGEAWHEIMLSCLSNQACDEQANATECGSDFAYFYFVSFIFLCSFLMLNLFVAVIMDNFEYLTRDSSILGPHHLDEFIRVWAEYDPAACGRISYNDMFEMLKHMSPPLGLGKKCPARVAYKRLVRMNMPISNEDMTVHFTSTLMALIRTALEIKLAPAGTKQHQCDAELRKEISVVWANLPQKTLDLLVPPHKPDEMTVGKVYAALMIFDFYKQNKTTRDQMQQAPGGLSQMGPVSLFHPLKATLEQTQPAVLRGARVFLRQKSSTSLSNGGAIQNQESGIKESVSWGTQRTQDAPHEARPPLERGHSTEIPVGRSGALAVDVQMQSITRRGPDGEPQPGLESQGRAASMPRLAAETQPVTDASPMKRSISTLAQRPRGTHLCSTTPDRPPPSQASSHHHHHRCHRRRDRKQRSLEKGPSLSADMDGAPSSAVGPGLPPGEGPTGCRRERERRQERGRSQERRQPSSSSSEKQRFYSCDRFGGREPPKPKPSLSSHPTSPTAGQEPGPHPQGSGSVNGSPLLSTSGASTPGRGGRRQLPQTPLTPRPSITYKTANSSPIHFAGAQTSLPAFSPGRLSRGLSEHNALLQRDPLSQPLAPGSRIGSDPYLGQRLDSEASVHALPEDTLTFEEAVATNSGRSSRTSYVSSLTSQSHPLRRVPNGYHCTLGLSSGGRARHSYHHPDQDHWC
row,Compound,IC50 [nM]
1,"O=S(=O)(c1ccc(OC(F)F)cc1)N1CCC(=NOC(c2ccc(F)cc2)c2ccc(F)cc2)CC1 [Example 232, 1-(4-(Difluoromethoxy)phenylsulfonyl)piperidin-4-one O-bis(4-fluorophenyl)methyl oxime]",≤ 1000
2,"CN1CCOc2cc(S(=O)(=O)N3CCC(=NOC(c4ccc(F)cc4)c4ccc(F)cc4)CC3)ccc21 [Example 237, 1-(4-Methyl-3,4-dihydro-2H-benzo[b][1,4]oxazin-7-ylsulfonyl)piperidin-4-one O-bis(4-fluorophenyl)methyl oxime]",≤ 1000
3,"COc1ccccc1S(=O)(=O)N1CCC(=NOC(c2ccc(F)cc2)c2ccc(F)cc2)CC1 [Example 238, 1-(2-Methoxyphenylsulfonyl)piperidin-4-one O-bis(4-fluorophenyl)methyl oxime]",≤ 1000
4,"O=S(=O)(c1ccc(F)c(F)c1)N1CCC(=NOC(c2ccc(F)cc2)c2ccc(F)cc2)CC1 [Example 243, 1-(3,4-Difluorophenylsulfonyl)piperidin-4-one O-bis(4-fluorophenyl)methyl oxime]",≤ 1000
5,"O=S(=O)(c1cc(F)cc(F)c1)N1CCC(=NOC(c2ccc(F)cc2)c2ccc(F)cc2)CC1 [Example 244, 1-(3,5-Difluorophenylsulfonyl)piperidin-4-one O-bis(4-fluorophenyl)methyl oxime]",≤ 1000
6,"O=S(=O)(c1cccc2cccnc12)N1CCC(=NOC(c2ccc(F)cc2)c2ccc(F)cc2)CC1 [Example 251, 1-(Quinolin-8-ylsulfonyl)piperidin-4-one O-bis(4-fluorophenyl)methyl oxime]",≤ 1000

# Second part, the compound after the results:
row,IC50 [nM],Compound
1,≤ 1000,"O=S(=O)(c1cccs1)N1CCC(=NOC(c2ccc(F)cc2)c2ccc(F)cc2)CC1 [Example 252, 1-(Thiophen-2-ylsulfonyl)piperidin-4-one O-bis(4-fluorophenyl)methyl oxime]"
2,≤ 1000,"N#Cc1ccc(S(=O)(=O)N2CCC(=NOC(c3ccc(F)cc3)c3ccc(F)cc3)CC2)cc1 [Example 256, 4-(4-(Bis(4-fluorophenyl)methoxyimino)piperidin-1-ylsulfonyl)benzonitrile]"
3,≤ 1000,"O=S(=O)(c1ccc(OC(F)(F)F)cc1)N1CCC(=NOC[C@@H]2Cc3ccccc3N2)CC1 [Example 263, (S)-1-(4-(trifluoromethoxy)phenylsulfonyl)piperidin-4-one O-indolin-2-ylmethyl oxime]"
4,≤ 1000,"O=S(=O)(c1ccc(OC(F)(F)F)cc1)N1CCC(=NOCC2Oc3ccccc3O2)CC1 [Example 265, 1-(4-(Trifluoromethoxy)phenylsulfonyl)piperidin-4-one O-benzo[d][1,3]dioxol-2-ylmethyl oxime]"
5,≤ 1000,"N#Cc1cccc(S(=O)(=O)N2CCC(=NOC(c3ccc(F)cc3)c3ccc(F)cc3)CC2)c1 [Example 267, 3-(4-(Bis(4-fluorophenyl)methoxyimino)piperidin-1-ylsulfonyl)benzonitrile]"
6,≤ 1000,"COc1ccc(S(=O)(=O)N2CCC(=NOC(c3ccc(F)cc3)c3ccc(F)cc3)CC2)cc1OC [Example 268, 1-(3,4-Dimethoxyphenylsulfonyl)piperidin-4-one O-bis(4-fluorophenyl)methyl oxime]"
7,≤ 1000,"N#Cc1cccc(C(ON=C2CCN(S(=O)(=O)c3ccc(OC(F)(F)F)cc3)CC2)c2ccncc2)c1 (stereo not drawn) [Example 269, 3-(Pyridin-4-yl(1-(4-(trifluoromethoxy)phenylsulfonyl)piperidin-4-ylideneaminooxy)methyl)benzonitrile]"
8,≤ 1000,"N#Cc1cccc(C(ON=C2CCN(S(=O)(=O)c3ccc(OC(F)(F)F)cc3)CC2)c2cccnc2)c1 (stereo not drawn) [Example 270, 3-(Pyridin-3-yl(1-(4-(trifluoromethoxy)phenylsulfonyl)piperidin-4-ylideneaminooxy)methyl)benzonitrile]"
9,≤ 1000,"N#Cc1cccc(C(ON=C2CCN(S(=O)(=O)c3ccc(OC(F)(F)F)cc3)CC2)c2ccccn2)c1 (stereo not drawn) [Example 271, 3-(Pyridin-2-yl(1-(4-(trifluoromethoxy)phenylsulfonyl)piperidin-4-ylideneaminooxy)methyl)benzonitrile]"
